Measured values from patent publication US20210170043A1, “DC-SIGN ANTIBODY CONJUGATES COMPRISING STING AGONISTS” (NOVARTIS AG, priority 2018, published 2021).

What was measured:
human STING wild type = target: T1, human STING wild type (Homo sapiens, UniProt Q86WV6, H232R); assay: hSTING wt assay (5xISRE-mIFNb-GL4 luciferase reporter in transfected HEK-293T cells); assay type: cell-based; conditions: read after 9-14 hours, normalized to 2'3'-cGAMP at 50 uM
T1 construct: expressed in transfected cells; host or cells: HEK-293T
Experimental: Cells were incubated overnight and treated with compounds. After 9-14 hours, plates were read by adding BrightGlo reagent (Promega) and reading on an Envision plate reader. The fold change over background was calculated and normalized to the fold-change induced by 2′3′-cGAMP at 50 uM. Plates were run in triplicate.

THP1-Dual cells = assay: THP1-Dual assay (Lucia reporter); assay type: cell-based; conditions: Homo sapiens, 384 well, 16-24 hours, normalized to 2'3'-cGAMP at 50 uM
Experimental: THP1-Dual cells were purchased from Invivogen. THP1-Dual cells were plated in 384 well plates in 20 uL of tissue culture media and incubated overnight. Compounds were added the next day and incubated 16-24 hours. Lucia reporter signal was read out by adding Quantiluc reagent (Invivogen) followed by reading on an Envision plate reader. The fold change over background was calculated and normalized to the fold-change induced by 2′3′-cGAMP at 50 uM. Plates were run in triplicate.

THP1-Dual/STING-KO cells = assay: THP1-Dual/STING-KO assay; assay type: cell-based; conditions: Homo sapiens, pooled STING-KO clones
Experimental: The fold change over background was calculated and normalized to the fold-change induced by 2′3′-cGAMP at 50 uM. Plates were run in triplicate.

[1] = test system: transgenic mice expressing human DC-SIGN gene (Tg+); assay: Plasma cytokine production in transgenic mice expressing human DC-SIGN (ELISA / MesoScaleDiscovery); assay type: in vivo, mouse
Experimental: FIGS. 5A-5E show exemplary data on DC-SIGN immunoconjugates inducing cytokine production in Tg+ mice. […] Plasma levels were analyzed by ELISA (IP-10 and IFNβ) or MesoScaleDiscovery Multiplex analysis (all other analytes). **** denotes p value of <0.0001 using an ANOVA with Tukey's test compared to Tg-2B2 hlgG1 DAPA C1 group.
(§1) Mice were bled 6 hours after dosing to collect plasma for analysis of circulating cytokine levels.

[2] = test system: transgenic mice expressing human DC-SIGN gene (Tg+); assay: Plasma cytokine and chemokine levels in human DC-SIGN transgenic mice; assay type: in vivo, mouse; conditions: 100 μg free compound i.v., 6 hours post dose, vs untreated and 10 μg
Experimental: Blood was collected at 6 hours post dose to analyze plasma cytokine and chemokine levels and spleens were analyzed at 24 hours post dose to look at dendritic cell activation.
as §1
Plasma was collected at indicated timepoints and analyzed with a Mouse IP-10 Platinum ELISA kit (eBioscience Affymetrix). Plasma was diluted 1:100 and the protocol was followed according to the manufacturer's recommendations. Data was collected using an Enspire spectro-photometer using […] as the primary wavelength.
Plasma was collected at indicated timepoints and analyzed with a Mouse IFN-beta ELISA kit (R&D Systems) according to the manufacturer's recommendations. Data was collected using an Enspire spectro-photometer using […] as the primary wavelength.
Plasma was collected at indicated timepoints and analyzed with a mouse Proinflammatory Panel 1 (mouse) Kit V-PLEX™ 10 plex from MesoScale Discovery. 25 μL of plasma per sample was used and protocol was followed according to the manufacturer's recommendations. Data were collected and analyzed using a Sector Imager 6000.
Human DC-SIGN transgenic mice (Tg+) (Schaefer et al., J. Immunol. (2008) 180 (10) 6836-6845) were bred to Signr1 deficient mice (−/− or KO) (Orr et al., Glycobiology (2013) 23(3): 363-380). Human DC-SIGN expression was checked using PCR to genotype the mice. Human DC-SIGN Tg+ Signr1−/− mice or human DC-SIGN Tg− Signr1−/− mice were tested with compounds as indicated in the above examples.

T1 sequence (Q86WV6 whole entry H232R): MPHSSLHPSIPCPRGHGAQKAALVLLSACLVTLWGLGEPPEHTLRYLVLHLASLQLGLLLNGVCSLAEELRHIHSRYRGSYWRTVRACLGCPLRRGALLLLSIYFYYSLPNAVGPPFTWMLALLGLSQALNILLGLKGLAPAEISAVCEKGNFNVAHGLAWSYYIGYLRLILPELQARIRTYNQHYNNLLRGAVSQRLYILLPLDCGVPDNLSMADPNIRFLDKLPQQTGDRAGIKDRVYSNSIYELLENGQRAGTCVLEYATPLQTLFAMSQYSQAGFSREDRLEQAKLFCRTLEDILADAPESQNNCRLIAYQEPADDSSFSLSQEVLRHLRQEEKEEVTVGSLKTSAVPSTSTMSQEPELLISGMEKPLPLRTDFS

## NCCCNc1ncnc2c1ncn2[C@@H]1O[C@@H]2CO[P@@](=O)(S)O[C@H]3[C@@H](F)[C@H](n4cnc5c(N)ncnc54)O[C@@H]3CO[P@@](=O)(S)O[C@H]2[C@H]1F
Human STING wild type
  EC50: > 25000 nM

## CCCCCCCCCCO[C@@H]1[C@@H]2O[P@](=O)(S)OC[C@H]3O[C@@H](n4cnc5c(N)ncnc54)[C@H](O[P@](=O)(S)OC[C@H]2O[C@H]1n1cnc2c(N)ncnc21)[C@@H]3O
THP1-Dual cells
  EC50: > 25000 nM

## Nc1ncnc2c1ncn2C1OC2COP(=O)(S)OC3C(COP(=O)(S)OC2C1F)OC(n1cnc2c(N)ncnc21)C3F (stereo not drawn) [Compound T1-1, di-2′-F—RR-CDA]
THP1-Dual cells
  EC50: 462 nM
THP1-Dual/STING-KO cells
  EC50: > 50000 nM
Human STING wild type
  EC50: 294 nM
[1]
  circulating plasma IL-12p70: increased
  circulating plasma IP-10: increased
  circulating plasma TNFα: increased
[2]
  plasma IL-12p70: increased
  plasma IP-10: increased
  plasma TNFα: increased

## Nc1ncnc2c1ncn2[C@@H]1O[C@@H]2CO[P@@](=O)(S)O[C@@H]3[C@H](O)[C@@H](CO[P@@](=O)(S)O[C@H]2[C@H]1F)O[C@H]3n1cnc2c(N)ncnc21 [Compound T1-2]
THP1-Dual cells
  EC50: 1990 nM
